Measurements as given in patent US20040009949A1, “Method for treating autoimmune or inflammatory diseases with combinations of inhibitory oligonucleotides and small molecule antagonists of immunostimulatory CpG nucleic acids” (Coley Pharmaceutical Group, Inc., priority 2002, published 2004).

Target: T1, human TLR9 (Homo sapiens, UniProt Q9NR96)
T1 construct: expressed in transfected cells
T1 sequence (Q9NR96 26-1032): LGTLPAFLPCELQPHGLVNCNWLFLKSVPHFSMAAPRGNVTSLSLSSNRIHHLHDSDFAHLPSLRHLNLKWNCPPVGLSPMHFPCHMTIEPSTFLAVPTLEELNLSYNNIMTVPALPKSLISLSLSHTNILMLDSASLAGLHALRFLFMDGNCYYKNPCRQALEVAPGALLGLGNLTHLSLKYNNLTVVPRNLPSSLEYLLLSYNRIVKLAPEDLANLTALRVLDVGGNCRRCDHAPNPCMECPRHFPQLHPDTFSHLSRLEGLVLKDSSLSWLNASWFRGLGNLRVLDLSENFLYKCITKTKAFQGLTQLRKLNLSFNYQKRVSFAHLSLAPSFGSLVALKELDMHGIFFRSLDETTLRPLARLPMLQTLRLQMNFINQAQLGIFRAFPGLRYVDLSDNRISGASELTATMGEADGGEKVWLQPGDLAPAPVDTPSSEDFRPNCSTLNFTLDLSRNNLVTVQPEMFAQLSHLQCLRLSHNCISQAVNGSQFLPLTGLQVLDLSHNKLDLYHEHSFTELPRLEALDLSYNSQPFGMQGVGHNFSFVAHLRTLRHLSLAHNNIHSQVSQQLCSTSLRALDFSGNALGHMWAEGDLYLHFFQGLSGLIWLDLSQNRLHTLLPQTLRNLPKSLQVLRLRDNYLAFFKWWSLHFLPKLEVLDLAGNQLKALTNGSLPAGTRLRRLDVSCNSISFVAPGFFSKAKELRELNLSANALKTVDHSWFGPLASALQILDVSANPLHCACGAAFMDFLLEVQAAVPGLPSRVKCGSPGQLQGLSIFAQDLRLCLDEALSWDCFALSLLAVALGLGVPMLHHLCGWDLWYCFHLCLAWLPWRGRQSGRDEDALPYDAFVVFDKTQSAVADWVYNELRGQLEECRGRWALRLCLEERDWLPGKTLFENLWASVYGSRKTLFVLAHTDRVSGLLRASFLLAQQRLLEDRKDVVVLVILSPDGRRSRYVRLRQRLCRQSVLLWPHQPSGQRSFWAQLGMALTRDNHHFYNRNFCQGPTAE
Test: NF-κB-luciferase activation of stably transfected 293-hTLR9-luc cells by CpG ODN 2006 in presence of inhibitory ODN 2088 and/or chloroquine
Assay type: cell-based
Conditions: as Table 1: ODN 2088 0.05 μM
Protocol: To generate stable clones expressing human TLR9, murine TLR9, or either TLR9 with the NF-κB-luc reporter plasmid, 293 cells were transfected in 10 cm plates (2×10^6 cells/plate) with 16 μg of DNA and selected with 0.7 mg/mL G418 (PAA Laboratories GmbH, Cölbe, Germany). The clones were also screened for IL-8 production or NF-κB-luciferase activity after stimulation with ODN. Four different types of clones were generated.
NF-κB activation was measured by determining luciferase activity of cells 16 h later. Results are given as fold induction above medium background.

Molecule	Fold increase of EC50 compared to ODN 2006 + TE (chloroquine 0.039 μg/mL) [fold]	Fold increase of EC50 compared to ODN 2006 + TE (chloroquine 0.078 μg/mL) [fold]	Fold increase of EC50 compared to ODN 2006 + TE (chloroquine 0.3125 μg/mL) [fold]
CCN(CC)CCCC(C)Nc1ccnc2cc(Cl)ccc12 (stereo not drawn) [Chloroquine, chloroquine]	2.3	2.6	3.6
ODN 2088: inhibitory ODN, TCCTGGCGGGGAAGT, SEQ ID NO:7 (chemistry not given here)	14.7	4.2	8.0
